In patent US10723699B2 (Hyundai Pharm Co., Ltd., priority 2015, dated 2020):
Like-named read-outs stand apart in the source and are kept apart here.

Biological target: T1, G protein-coupled receptor 119 (GPR-119) (Mesocricetus auratus, UniProt A0A1U8CD06)
T1 construct: hamster-derived β-cells containing G protein-coupled receptor 119 (GPR-119), HIT-T15 cells; host or cells: HIT-T15 (hamster pancreatic β-cells)
T1 sequence (A0A1U8CD06 1-334): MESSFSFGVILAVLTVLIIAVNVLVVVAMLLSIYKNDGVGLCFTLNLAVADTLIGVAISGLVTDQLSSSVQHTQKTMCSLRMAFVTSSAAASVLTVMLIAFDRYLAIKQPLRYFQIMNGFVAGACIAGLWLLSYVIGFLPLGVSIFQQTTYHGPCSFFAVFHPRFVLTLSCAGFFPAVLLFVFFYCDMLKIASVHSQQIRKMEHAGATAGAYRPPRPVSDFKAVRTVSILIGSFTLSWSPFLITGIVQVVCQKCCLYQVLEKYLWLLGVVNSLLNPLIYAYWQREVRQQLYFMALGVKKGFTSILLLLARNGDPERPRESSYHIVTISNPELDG
Test: cAMP activity in HIT-T15 cells (cAMP dynamic kit, FRET)
Format: cell-based, hamster
Description: To check whether the cyclohexene derivatives according to the present invention activate cyclic adenosine monophosphate (cAMP), experiments were carried out, as follows.
The HIT-T15 cells were plated on a 96-well plate at 60,000 cells per well. On the next day of plating, the cells were treated with a varying concentration of each of the example compounds according to the present invention, and incubated at 37° C. for an hour. In this case, each of the treated compounds was used at six concentrations, ranging from 0.0032 to 10 μM, to treat the cells.
The cyclic adenosine monophosphate (cAMP) activity was measured according to the manufacturer's instruction using a cAMP dynamic kit commercially available from Cis Bio Inc. (Bedford, Mass.). The cells were lysed, and a level of cAMP was determined by a competitive immunoassay using D2-labeled cAMP and a cryptate-labeled anti-cAMP antibody. Fluorescence was read in Flex Station (Molecular Devices). […] Unlabeled cAMP in the cell lysate competed with the D2-labeled cAMP against the cryptate-labeled antibody. Since a decrease in the measured intensity of the FRET signals represents a level of cAMP in the cells, the cAMP activities of the compounds are calculated as a change in FRET signals by adjusting an amount of dimethyl sulfoxide (DMSO).

[1] = 1 hour at 37° C., six concentrations 0.0032 to 10 μM, read-out: EC50

CC(C)c1noc(N2CCC(COc3ccc(C4=CCC(C(=O)N5CCOCC5)CC4)cn3)CC2)n1 (stereo not shown) [Example 317, (4-(6-((1-(3-isopropyl-1,2,4-oxadiazol-5-yl)piperidin-4-yl)methoxy)pyridin-3-yl)cyclohex-3-enyl)(morpholino)methanone]
EC50 [1]: 50 nM
EC50 (Table 2, read-out: EC50 value): ≤ 50 nM

CC(C)c1noc(N2CCC(COc3ccc(C4=CCC(C(=O)N5CCSCC5)CC4)cn3)CC2)n1 (stereo not shown) [Example 318, (4-(6-((1-(3-isopropyl-1,2,4-oxadiazol-5-yl)piperidin-4-yl)methoxy)pyridin-3-yl)cyclohex-3-enyl)(thiomorpholino)methanone]
EC50 [1]: 38 nM
EC50 (Table 2, read-out: EC50 value): ≤ 50 nM

CC(C)c1noc(N2CCC(COc3ccc(C4=CCC(C(=O)N5CCC(CCO)CC5)CC4)cn3)CC2)n1 (stereo not shown) [Example 320, (4-(2-hydroxyethyl)piperidin-1-yl)(4-(6-((1-(3-isopropyl-1,2,4-oxadiazol-5-yl)piperidin-4-yl)methoxy)pyridin-3-yl)cyclohex-3-enyl)methanone]
EC50 [1]: 53 nM

CCc1cnc(N2CCC(COc3ccc(C4=CCC(C(=O)N5CCC(C#N)CC5)CC4)cc3F)CC2)nc1 (stereo not shown) [Example 321, 1-(4-(4-((1-(5-ethylpyrimidin-2-yl)piperidin-4-yl)methoxy)-3-fluorophenyl)cyclohex-3-enecarbonyl)piperidine-4-carbonitrile]
EC50 [1]: 28 nM
EC50 (Table 2, read-out: EC50 value): ≤ 50 nM

CCc1cnc(N2CCC(COc3ccc(C4=CCC(C(=O)NCCF)CC4)cc3F)CC2)nc1 (stereo not shown) [Example 322, 4-(4-((1-(5-ethylpyrimidin-2-yl)piperidin-4-yl)methoxy)-3-fluorophenyl)-N-(2-fluoroethyl)cyclohex-3-enecarboxamide]
EC50 [1]: 62 nM

CCc1cnc(N2CCC(COc3ccc(C4=CCC(C(=O)N(CCO)CCO)CC4)cc3F)CC2)nc1 (stereo not shown) [Example 323, 4-(4-((1-(5-ethylpyrimidin-2-yl)piperidin-4-yl)methoxy)-3-fluorophenyl)-N,N-bis(2-hydroxyethyl)cyclohex-3-enecarboxamide]
EC50 [1]: 28 nM
EC50 (Table 2, read-out: EC50 value): ≤ 50 nM

CCc1cnc(N2CCC(COc3ccc(C4=CCC(C(=O)N5CCC(C(N)=O)CC5)CC4)cc3F)CC2)nc1 (stereo not shown) [Example 324, 1-(4-(4-((1-(5-ethylpyrimidin-2-yl)piperidin-4-yl)methoxy)-3-fluorophenyl)cyclohex-3-enecarbonyl)piperidine-4-carboxamide]
EC50 [1]: 27 nM
EC50 (Table 2, read-out: EC50 value): ≤ 50 nM

CC(C)(C)OC(=O)N1CCC(COc2ccc(C3=CCC(C(=O)N4CCC(CO)CC4)CC3)nc2)CC1 (stereo not shown) [Example 325, tert-butyl 4-((6-(4-(4-(hydroxymethyl)piperidine-1-carbonyl)cyclohex-1-enyl)pyridin-3-yloxy)methyl)piperidine-1-carboxylate]
EC50 [1]: 53 nM

CC(C)(C)OC(=O)N1CCC(COc2ccc(C3=CCC(C(=O)N4CCC(CCO)CC4)CC3)nc2)CC1 (stereo not shown) [Example 326, tert-butyl 4-((6-(4-(4-(2-hydroxyethyl)piperidine-1-carbonyl)cyclohex-1-enyl)pyridin-3-yloxy)methyl)piperidine-1-carboxylate]
EC50 [1]: 70 nM

CC(C)(C)OC(=O)N1CCC(COc2ccc(C3=CCC(C(=O)N4CCOCC4)CC3)nc2)CC1 (stereo not shown) [Example 327, tert-butyl 4-((6-(4-(morpholine-4-carbonyl)cyclohex-1-enyl)pyridin-3-yloxy)methyl)piperidine-1-carboxylate]
EC50 [1]: 80 nM

CC(C)(C)OC(=O)N1CCC(COc2ccc(C3=CCC(C(=O)N4CCSCC4)CC3)nc2)CC1 (stereo not shown) [Example 328, tert-butyl 4-((6-(4-(thiomorpholine-4-carbonyl)cyclohex-1-enyl)pyridin-3-yloxy)methyl)piperidine-1-carboxylate]
EC50 [1]: 21 nM
EC50 (Table 2, read-out: EC50 value): ≤ 50 nM

CC(C)c1noc(N2CCC(COc3ccc(C4=CCC(C(=O)N5CCC5)CC4)cc3F)CC2)n1 (stereo not shown) [Example 330, azetidin-1-yl(4-(3-fluoro-4-((1-(3-isopropyl-1,2,4-oxadiazol-5-yl)piperidin-4-yl)methoxy)phenyl)cyclohex-3-enyl)methanone]
EC50 [1]: 35 nM
EC50 (Table 2, read-out: EC50 value): ≤ 50 nM

CC(C)c1noc(N2CCC(COc3ccc(C4=CCC(C(=O)N5CCCC5)CC4)cc3F)CC2)n1 (stereo not shown) [Example 331, (4-(3-fluoro-4-((1-(3-isopropyl-1,2,4-oxadiazol-5-yl)piperidin-4-yl)methoxy)phenyl)cyclohex-3-enyl)(pyrrolidin-1-yl)methanone]
EC50 [1]: 11 nM
EC50 (Table 2, read-out: EC50 value): ≤ 50 nM

CC(C)c1noc(N2CCC(COc3ccc(C4=CCC(C(=O)N5CCCCC5)CC4)cc3F)CC2)n1 (stereo not shown) [Example 332, (4-(3-fluoro-4-((1-(3-isopropyl-1,2,4-oxadiazol-5-yl)piperidin-4-yl)methoxy)phenyl)cyclohex-3-enyl)(piperidin-1-yl)methanone]
EC50 [1]: 6.7 nM
EC50 (Table 2, read-out: EC50 value): ≤ 50 nM

CC(C)c1noc(N2CCC(COc3ccc(C4=CCC(C(=O)N5CCC(CO)CC5)CC4)cc3F)CC2)n1 (stereo not shown) [Example 333, (4-(3-fluoro-4-((1-(3-isopropyl-1,2,4-oxadiazol-5-yl)piperidin-4-yl)methoxy)phenyl)cyclohex-3-enyl)(4-(hydroxymethyl)piperidin-1-yl)methanone]
EC50 [1]: 30 nM
EC50 (Table 2, read-out: EC50 value): ≤ 50 nM

CC(C)c1noc(N2CCC(COc3ccc(C4=CCC(C(=O)N5CC(O)C5)CC4)cc3F)CC2)n1 (stereo not shown) [Example 334, (4-(3-fluoro-4-((1-(3-isopropyl-1,2,4-oxadiazol-5-yl)piperidin-4-yl)methoxy)phenyl)cyclohex-3-enyl)(3-hydroxyazetidin-1-yl)methanone]
EC50 [1]: 52 nM

CC(C)c1noc(N2CCC(COc3ccc(C4=CCC(C(=O)N5CCC(CCO)CC5)CC4)cc3F)CC2)n1 (stereo not shown) [Example 335, (4-(3-fluoro-4-((1-(3-isopropyl-1,2,4-oxadiazol-5-yl)piperidin-4-yl)methoxy)phenyl)cyclohex-3-enyl)(4-(2-hydroxyethyl)piperidin-1-yl)methanone]
EC50 [1]: 18 nM
EC50 (Table 2, read-out: EC50 value): ≤ 50 nM

CC(C)c1noc(N2CCC(COc3ccc(C4=CCC(C(=O)N5CCC(N6CCCC6)CC5)CC4)cc3F)CC2)n1 (stereo not shown) [Example 336, (4-(3-fluoro-4-((1-(3-isopropyl-1,2,4-oxadiazol-5-yl)piperidin-4-yl)methoxy)phenyl)cyclohex-3-enyl)(4-(pyrrolidin-1-yl)piperidin-1-yl)methanone]
EC50 [1]: 180 nM

CC(C)c1noc(N2CCC(COc3ccc(C4=CCC(C(=O)N5CC(=NO)C5)CC4)cn3)CC2)n1 (stereo not shown) [Example 337, (3-(hydroxyimino)azetidin-1-yl)(4-(6-((1-(3-isopropyl-1,2,4-oxadiazol-5-yl)piperidin-4-yl)methoxy)pyridin-3-yl)cyclohex-3-enyl)methanone]
EC50 [1]: 160 nM

CC(C)c1noc(N2CCC(COc3ccc(C4=CCC(C(=O)N5CCC(C#N)CC5)CC4)cn3)CC2)n1 (stereo not shown) [Example 338, 1-(4-(6-((1-(3-isopropyl-1,2,4-oxadiazol-5-yl)piperidin-4-yl)methoxy)pyridin-3-yl)cyclohex-3-enecarbonyl)piperidine-4-carbonitrile]
EC50 [1]: 40 nM
EC50 (Table 2, read-out: EC50 value): ≤ 50 nM

CC(C)c1noc(N2CCC(COc3ccc(C4=CCC(C(=O)N5CCC5)CC4)cn3)CC2)n1 (stereo not shown) [Example 339, azetidin-1-yl(4-(6-((1-(3-isopropyl-1,2,4-oxadiazol-5-yl)piperidin-4-yl)methoxy)pyridin-3-yl)cyclohex-3-enyl)methanone]
EC50 [1]: 120 nM

CC(C)(C)OC(=O)N1CCC(COc2ccc(C3=CCC(C(=O)N4CCC(C#N)CC4)CC3)nc2)CC1 (stereo not shown) [Example 340, tert-butyl 4-((6-(4-(4-cyanopiperidine-1-carbonyl)cyclohex-1-enyl)pyridin-3-yloxy)methyl)piperidine-1-carboxylate]
EC50 [1]: 28 nM
EC50 (Table 2, read-out: EC50 value): ≤ 50 nM

CN(CCO)C(=O)C1CC=C(c2ccc(OCC3CCN(C(=O)OC(C)(C)C)CC3)cn2)CC1 (stereo not shown) [Example 341, tert-butyl 4-((6-(4-((2-hydroxyethyl)(methyl)carbamoyl)cyclohex-1-enyl)pyridin-3-yloxy)methyl)piperidine-1-carboxylate]
EC50 [1]: 180 nM

CC(C)(C)OC(=O)N1CCC(COc2ccc(C3=CCC(C(=O)N4CCC(=NO)CC4)CC3)nc2)CC1 (stereo not shown) [Example 344, tert-butyl 4-((6-(4-(4-(hydroxyimino)piperidine-1-carbonyl)cyclohex-1-enyl)pyridin-3-yloxy)methyl)piperidine-1-carboxylate]
EC50 [1]: 45 nM
EC50 (Table 2, read-out: EC50 value): ≤ 50 nM

CC(C)c1noc(N2CCC(COc3ccc(C4=CCC(C(=O)N5CCC(=O)CC5)CC4)cc3F)CC2)n1 (stereo not shown) [Example 345, 1-(4-(3-fluoro-4-((1-(3-isopropyl-1,2,4-oxadiazol-5-yl)piperidin-4-yl)methoxy)phenyl)cyclohex-3-enecarbonyl)piperid in-4-one]
EC50 (EC50 (nM), 1 hour at 37° C., six concentrations 0.0032 to 10 μM): 36 nM
EC50 (EC50 value, Table 2): ≤ 50 nM
